One data set has as its system P-gp (MDR1). As to the kind of experiment: MDCK-MDR1 assay (permeability, efflux ratio). It is filed as in vitro ADME. Conditions: dog, Papp BA/Papp AB, 60-minute incubation.
The target of data set [1] is T1, human BACE1 (Homo sapiens, UniProt P56817). The data set can be described thus: BACE1 efficacy assay (FRET-based, commercial BACE1 kit). It is filed as biochemical. Further details: purchased Life Technologies P2985. Particulars: 10 μM test compound. As for the experimental part: The efficacy assay was performed as a FRET-based assay using a commercially available BACE1 kit (Life Technologies, P2985). 2 μl test compound at 10 μM (final concentration) and 15 μl BACE1 enzyme from the kit (final concentration 3 nM) were preincubated for 15 minutes at room temperature before addition of 15 μl of substrate from the kit (250 nM final concentration) and incubated for additional 90 minutes at room temperature. The assay plate was subsequently read in a Pherastar (Ex540/Em590). The enzyme activity observed in presence of test compound were normalized to the enzyme activity observed in presence of buffer and 10 μM (final concentration) of the high affinity BACE1 reference inhibitor (S)-6-[3-Chloro-5-(5-prop-1-ynyl-pyridin-3-yl)-thiophen-2-yl]-2-imino-3,6-dimethyl-tetrahydropyrimidin-4-one, respectively. The efficacy of the test compounds was evaluated at 10 μM (final concentration) and defined as the percent inhibition of the enzyme activity using the equation % inhibition=100%−normalized enzyme activity in percent.
T1 sequence (P56817 46-501): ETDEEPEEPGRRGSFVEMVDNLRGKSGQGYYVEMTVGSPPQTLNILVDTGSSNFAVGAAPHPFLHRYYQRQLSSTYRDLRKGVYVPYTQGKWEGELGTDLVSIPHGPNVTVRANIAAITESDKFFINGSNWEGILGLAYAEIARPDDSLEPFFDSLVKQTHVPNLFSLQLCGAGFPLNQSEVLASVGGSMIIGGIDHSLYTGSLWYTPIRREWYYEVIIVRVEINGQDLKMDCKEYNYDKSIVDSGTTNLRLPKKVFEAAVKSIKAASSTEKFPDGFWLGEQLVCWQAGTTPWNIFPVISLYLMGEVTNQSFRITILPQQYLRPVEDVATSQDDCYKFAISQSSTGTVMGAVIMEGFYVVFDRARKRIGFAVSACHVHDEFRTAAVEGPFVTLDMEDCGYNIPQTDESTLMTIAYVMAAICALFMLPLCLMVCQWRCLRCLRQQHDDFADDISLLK

In data set [2] the target is T1, human BACE1. The data set can be described thus: BACE1 binding assay (SPA-based radioligand binding). Further details: biotin (biotinylated form); made in house; host or cells: Freestyle HEK293 cells. Particulars: pH 4.5, 10 nM radioligand, Ki=IC50/(1+L/Kd). In a few lines:
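SPA radioligand displacement: biotinylated human BACE1 (HEK293-expressed, 6 nM final) with 10 nM [3H]-isophthalamide ligand and streptavidin beads in 50 mM sodium acetate pH 4.5, 50 mM NaCl, 0.03% Tween-20, 1 h at room temperature. Non-specific binding defined with 1 μM reference inhibitor. IC50 converted to Ki via Cheng-Prusoff using saturation-derived Kd.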

Structures are written as SMILES.

Our source for the efflux ratio, inhibition and Ki values is patent US20180230160A1, “2-AMINO-7A-PHENYL-3,4,4A,5,7,7A-HEXAHYDROFURO[3,4-B]PYRIDINES AS BACE1 INHIBITORS” (H. Lundbeck A/S, priority 2015, published 2018).

As a reminder, the efflux ratio is the permeability from basolateral to apical divided by that in the opposite direction, in the common usage. By inhibition is commonly meant the change of the read-out against control, counted positive when it falls. The term Ki denotes a measure of affinity in units of concentration, obtained from inhibition or displacement. Read a high Ki as weaker binding. For `[2H]C([2H])([2H])Oc1ccc(C(=O)Nc2ccc(F)c([C@]34COC[C@H]3C[C@@](F)(CF)C(N)=N4)c2)nc1` [Example 22, N-(3-((3S,4aS,7aS)-2-amino-3-fluoro-3-(fluoromethyl)-3,4,4a,5-tetrahydrofuro[3,4-b]pyridin-7a-yl)-4-fluorophenyl)-5-(methoxy-d3)picolinamide], in the data set with P-gp (MDR1), the efflux ratio at 60 min, 0.5 μM turned out to be 1.85. Moreover, the inhibition at 10 µM against human BACE1 [1] was 99%. The Ki on human BACE1 [2] was determined as 51 nM.
As to `COc1cnc(C(=O)Nc2ccc(F)c([C@]34COC[C@@]3(F)C[C@@](C)(F)C(N)=N4)c2)cn1` [Example 7, N-(3-((3R,4aR,7aS)-2-amino-3,4a-difluoro-3-methyl-3,4,4a,5,7,7a-hexahydrofuro[3,4-b]pyridin-7a-yl)-4-fluorophenyl)-5-methoxypyrazine-2-carboxamide], the efflux ratio at 60 min, 0.5 μM in the data set on P-gp (MDR1) was determined as 0.94. Further, the inhibition at 10 µM at human BACE1 [1] was determined as 104%. For the same molecule, the affinity on human BACE1 [2] corresponds to a Ki of 11 nM.
